Legend:
HEL 92.1.7 cells = assay: Cell proliferation assay (CCK8); assay type: cell-based; settings: 48h
Protocol: (§1) This example describes inhibition of in vitro cell proliferation with exemplary HDAC11 inhibitors. The effects of selective HDAC11 inhibitors on cell proliferation were measured in cell lines containing the MPN-associated mutations MPL W515L (Ba/F3 MPL W515L) and JAK2 V617F (Ba/F3 JAK2 V617F, HEL 92.1.7, SET-2). HEL 92.1.7 and SET-2 cells were purchased from the ATCC and DSMZ, respectively. Ba/F3 cells overexpressing either MPLW515L or JAK2V617F, which were cytokine independent, were generated by transforming Ba/F3 cells with retroviruses overexpressing either MPL W515L or JAK2V617F. For survival assays, cells were seeded in 96-well plates at the density of 0.1 million/ml with addition of indicated compounds and incubated at 37° C. for 48h. CCK8 solution (Dojindo, Rockville, Md.) was added and absorbance at 450 nm was measured after 3 hours of incubation. Readings were normalized to dimethylsulfoxide (DMSO)-treated wells.

SET-2 cells = assay: Cell proliferation assay (CCK8); assay type: cell-based; settings: FIG. 4 legend
Protocol: as §1

SMILES: N#CC[C@H](C1CCCC1)n1cc(-c2ncnc3[nH]ccc23)cn1 [ruxolitinib, reference compound]
- growth of the HEL 92.1.7 cell line (HEL 92.1.7 cells): inhibited
- growth of SET-2 cell line (SET-2 cells): inhibited
